These results are taken from patent US12215082B1 (priority 2023, dated 2025).

For orientation: MIC means the lowest concentration found to suppress growth.

The test deals with Mycobacterium tuberculosis H37Rv (susceptible). The test can be described thus: Resazurin Microplate Assay (REMA), anti-tubercular activity, H37Rv strain. The following applies: 192 h, read-out: MIC Susceptible (H37Rv). It counts as cell-based. (The colour change of resazurin is a common sign of viable cells or microbes.)
In the case of `O=C(C[n+]1ccc(/C=N/O)cc1)c1ccccc1.[Br-]` [Compound 3a, (E)-4-((Hydroxyimino)methyl)-1-(2-oxo-2-phenylethyl)pyridin-1-ium bromide], the MIC worked out at 32 µg/mL.
Take `O=C(C[n+]1ccc(/C=N/O)cc1)c1ccc(Br)cc1.[Br-]` [Compound 3b, (E)-1-(2-(4-Bromophenyl)-2-oxoethyl)-4-((hydroxyimino)methyl)pyridin-1-ium bromide]: the MIC is 32 µg/mL.
Next, `O=C(C[n+]1ccc(/C=N/O)cc1)c1ccc(F)cc1.[Br-]` [Compound 3c, (E)-1-(2-(4-Fluorophenyl)-2-oxoethyl)-4-((hydroxyimino)methyl)pyridin-1-ium bromide]: 32 µg/mL.
For `N#Cc1ccc(C(=O)C[n+]2ccc(/C=N/O)cc2)cc1.[Br-]` [Compound 3d, (E)-1-(2-(4-Cyanophenyl)-2-oxoethyl)-4-((hydroxyimino)methyl)pyridin-1-ium bromide], the MIC was 16 µg/mL.
On to `O=C(C[n+]1ccc(/C=N/O)cc1)c1ccccc1[N+](=O)[O-].[Br-]` [Compound 3e, (E)-4-((Hydroxyimino)methyl)-1-(2-(2-nitrophenyl)-2-oxoethyl)pyridin-1-ium bromide], for which the MIC turned out to be 64 µg/mL.
